Reference: PubChem BioAssay AID330 (DTP/NCI, 2004)
Values joined by “and” are separate entries in the source; they are usually repeats but may differ in a detail not shown here. Equal values may be shown once. Toxic doses and inconclusive results are not listed. Rule for the calls: active = survival T/C of 150% or more; inactive = T/C below 125% in these data.

Test system: P388 leukemia ip, CD2F1 mice, survival T/C
Assay: NCI In Vivo Anticancer Drug Screen. Data for tumor model P388 Leukemia (intraperitoneal) in CD2F1 (CDF1) mice
Details: endpoint: median survival time, higher = longer survival
Procedure, shortened: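 Mice carrying the transplanted tumor received test compound or vehicle. Survival was recorded in each group, and the value is the treated-group measurement divided by that of the vehicle-treated control group.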

[1] = dose: 25.0 mg/kg/injection, schedule: Q01DX009 (ip), vehicle: saline with Tween-80
[2] = dose: 50.0 mg/kg/injection, schedule: Q01DX009 (ip), vehicle: saline with Tween-80
[3] = dose: 100.0 mg/kg/injection, schedule: Q01DX009 (ip), vehicle: saline with Tween-80
[4] = dose: 50.0 mg/kg/injection, schedule: Q01DX005 (ip), vehicle: saline
[5] = dose: 50.0 mg/kg/injection, schedule: Q01DX009 (ip), vehicle: Klucel (hydroxypropylcellulose) (HPC)
[6] = dose: 100.0 mg/kg/injection, schedule: Q01DX009 (ip), vehicle: Klucel (hydroxypropylcellulose) (HPC)
[7] = dose: 100.0 mg/kg/injection, schedule: Q01DX005 (ip), vehicle: saline
[8] = dose: 200.0 mg/kg/injection, schedule: Q01DX005 (ip), vehicle: saline
[9] = dose: 200.0 mg/kg/injection, schedule: Q01DX009 (ip), vehicle: saline with Tween-80

Measured: T/C

C[C@@H]1CC2=CC(=O)CC[C@@H]2[C@H]2CC[C@@]3(C)[C@@H](CC[C@]3(C)O)[C@@H]21
inactive: [1] 100 % of control | dose: 25.0 mg/kg/injection, schedule: Q04DX003 (ip), vehicle: saline with Tween-80 100 % of control | [2] 105 % of control | dose: 50.0 mg/kg/injection, schedule: Q04DX003 (ip), vehicle: saline with Tween-80 91 % of control | [3] 105 % of control | dose: 100.0 mg/kg/injection, schedule: Q04DX003 (ip), vehicle: saline with Tween-80 104 % of control | dose: 200.0 mg/kg/injection, schedule: Q04DX003 (ip), vehicle: saline with Tween-80 100 % of control | dose: 400.0 mg/kg/injection, schedule: Q04DX003 (ip), vehicle: saline with Tween-80 90 % of control

C=C(OC1C=C(C(=O)O)C2OC2C1O)C(=O)O (stereo not drawn)
inactive: dose: 2.5 mg/kg/injection, schedule: Q01DX005 (ip), vehicle: saline 100 % of control | dose: 5.0 mg/kg/injection, schedule: Q01DX005 (ip), vehicle: saline 100 % of control | dose: 10.0 mg/kg/injection, schedule: Q01DX005 (ip), vehicle: saline 106 % of control | dose: 20.0 mg/kg/injection, schedule: Q01DX005 (ip), vehicle: saline 102 % of control | dose: 40.0 mg/kg/injection, schedule: Q01DX005 (ip), vehicle: saline 109 % of control

CN(C)CCCNC(=O)c1ccc2c(c1O)C(=O)c1ccccc1C2=O
inactive: dose: 12.5 mg/kg/injection, schedule: Q01DX005 (ip), vehicle: saline 105 % of control | dose: 25.0 mg/kg/injection, schedule: Q01DX005 (ip), vehicle: saline 109 % of control | [4] 114 % of control

O=C(CC(=O)c1ccccc1)Nc1ccc(-c2nc3ccccc3c(=O)[nH]2)cc1
inactive: dose: 50.0 mg/kg/injection, schedule: Q01DX009 (ip), vehicle: saline + alcohol 97 % of control | dose: 100.0 mg/kg/injection, schedule: Q01DX009 (ip), vehicle: saline + alcohol 92 % of control | dose: 200.0 mg/kg/injection, schedule: Q01DX009 (ip), vehicle: saline + alcohol 94 % of control

NNC(=O)c1ccc(-c2ccccc2)cc1
inactive: dose: 6.25 mg/kg/injection, schedule: Q01DX009 (ip), vehicle: Klucel (hydroxypropylcellulose) (HPC) 102 % of control | dose: 12.5 mg/kg/injection, schedule: Q01DX009 (ip), vehicle: Klucel (hydroxypropylcellulose) (HPC) 107 % of control | dose: 25.0 mg/kg/injection, schedule: Q01DX009 (ip), vehicle: Klucel (hydroxypropylcellulose) (HPC) 102 % of control | [5] 110 % of control | [6] 116 % of control

Cc1ccc(/C=C(\NC(=O)c2ccc(C)cc2)C(=O)O)cc1
inactive: dose: 50.0 mg/kg/injection, schedule: Q01DX005 (ip), vehicle: Klucel (hydroxypropylcellulose) (HPC) 114 % of control | dose: 100.0 mg/kg/injection, schedule: Q01DX005 (ip), vehicle: Klucel (hydroxypropylcellulose) (HPC) 114 % of control | dose: 200.0 mg/kg/injection, schedule: Q01DX005 (ip), vehicle: Klucel (hydroxypropylcellulose) (HPC) 107 % of control

Cc1ccc(NC(=O)NCc2ccncc2)cc1NC(=O)NCc1ccncc1
inactive: [5] 112 % of control | [6] 110 % of control

CN(C)CCNc1ccc(N)c2sc3ccccc3c(=O)c12
inactive: [1] 99 % of control and 92 % of control | [2] 100 % of control and 112 % of control and 93 % of control | [3] 112 % of control and 121 % of control

C=C1CC=CC(C)(C)C12CC(Br)C(C)(Cl)CC2O (stereo not drawn)
inactive: dose: 10.0 mg/kg/injection, schedule: Q01DX009 (ip), vehicle: Klucel (hydroxypropylcellulose) (HPC) 115 % of control | dose: 20.0 mg/kg/injection, schedule: Q01DX009 (ip), vehicle: Klucel (hydroxypropylcellulose) (HPC) 109 % of control | dose: 40.0 mg/kg/injection, schedule: Q01DX009 (ip), vehicle: Klucel (hydroxypropylcellulose) (HPC) 106 % of control

Cc1nccnc1NN=O
inactive: dose: 3.12 mg/kg/injection, schedule: Q01DX009 (ip), vehicle: water 101 % of control | dose: 6.25 mg/kg/injection, schedule: Q01DX009 (ip), vehicle: water 104 % of control | dose: 12.5 mg/kg/injection, schedule: Q01DX009 (ip), vehicle: water 111 % of control and 113 % of control | dose: 100.0 mg/kg/injection, schedule: Q01DX009 (ip), vehicle: water 87 % of control

CCCCCCC1OCN2CCCCC12 (stereo not drawn)
inactive: [4] 105 % of control | [7] 107 % of control | [8] 109 % of control

O=C1N(c2cccc(F)c2)C(=O)N1c1cccc(F)c1
inactive: [2] 115 % of control | [3] 100 % of control | [9] 98 % of control

CCN(CC)Cc1cc(N)cc(N=Nc2ccc3c(c2)c2ccccc2n3CC)c1O
inactive: [2] 97 % of control | [3] 108 % of control | [9] 105 % of control

O=C(CN1CCCCC1)c1c(-c2ccccc2)[nH]c2ccccc12
inactive: dose: 100.0 mg/kg/injection, schedule: Q04DX003 (ip), vehicle: saline 108 % of control | dose: 200.0 mg/kg/injection, schedule: Q04DX003 (ip), vehicle: saline 99 % of control | dose: 400.0 mg/kg/injection, schedule: Q04DX003 (ip), vehicle: saline 93 % of control

COCC1OC(OC2C3=C(C(C)C)CCC3(C)/C=C3\C(CCC3(O)COC)C(C)C2O)C(O)C2OC3OC12OC3(C)C1CO1 (stereo not drawn)
inactive: dose: 1.5 mg/kg/injection, schedule: Q01DX009 (ip), vehicle: Klucel (hydroxypropylcellulose) (HPC) 96 % of control | dose: 3.0 mg/kg/injection, schedule: Q01DX009 (ip), vehicle: Klucel (hydroxypropylcellulose) (HPC) 113 % of control | dose: 6.0 mg/kg/injection, schedule: Q01DX009 (ip), vehicle: Klucel (hydroxypropylcellulose) (HPC) 91 % of control | dose: 12.0 mg/kg/injection, schedule: Q01DX009 (ip), vehicle: Klucel (hydroxypropylcellulose) (HPC) 97 % of control | dose: 24.0 mg/kg/injection, schedule: Q01DX009 (ip), vehicle: Klucel (hydroxypropylcellulose) (HPC) 100 % of control

O=C(O)/C=C/CCCCCO
inactive: dose: 100.0 mg/kg/injection, schedule: Q01DX001 (ip), vehicle: saline with Tween-80 94 % of control | dose: 200.0 mg/kg/injection, schedule: Q01DX001 (ip), vehicle: saline with Tween-80 97 % of control | dose: 400.0 mg/kg/injection, schedule: Q01DX001 (ip), vehicle: saline with Tween-80 90 % of control

c1ccc2c(NCCCCCCCCCCCCCCCCNc3c4ccccc4nc4ccccc34)c3ccccc3nc2c1
inactive: dose: 0.62 mg/kg/injection, schedule: Q01DX009 (ip), vehicle: other 98 % of control | dose: 1.25 mg/kg/injection, schedule: Q01DX009 (ip), vehicle: other 101 % of control | dose: 2.5 mg/kg/injection, schedule: Q01DX009 (ip), vehicle: other 105 % of control | dose: 5.0 mg/kg/injection, schedule: Q01DX009 (ip), vehicle: other 109 % of control | dose: 10.0 mg/kg/injection, schedule: Q01DX009 (ip), vehicle: other 108 % of control

CCOC(=O)C1=Nc2ccccc2N=C(C2C(=O)C=C(C)OC2=O)C1 (stereo not drawn)
inactive: dose: 100.0 mg/kg/injection, schedule: Q01DX001 (ip), vehicle: saline 108 % of control | dose: 200.0 mg/kg/injection, schedule: Q01DX001 (ip), vehicle: saline 104 % of control | dose: 400.0 mg/kg/injection, schedule: Q01DX001 (ip), vehicle: saline 103 % of control

N#CC1=C(N)OC(/C=C/c2ccccc2)=C(C#N)C1c1ccccc1 (stereo not drawn)
inactive: dose: 50.0 mg/kg/injection, schedule: Q01DX005 (ip), vehicle: saline with Tween-80 97 % of control | dose: 100.0 mg/kg/injection, schedule: Q01DX005 (ip), vehicle: saline with Tween-80 98 % of control | dose: 200.0 mg/kg/injection, schedule: Q01DX005 (ip), vehicle: saline with Tween-80 89 % of control

CC(OP(=O)(O)O)C(N)C(=O)O (stereo not drawn)
inactive: [4] 97 % of control | [7] 93 % of control | [8] 98 % of control
